According to patent publication EP0657160A1, “Oral composition for desensitising sensitive teeth” (UNILEVER N.V., priority 1993, dated 1995):
Where a name gives a salt, the structure may show the parent alone. Read-outs that look alike come from different tables or passages of the source.

Test system: spinal nerve roots of the cauda equina
Test: Compound nerve action potentials (CAPs) recorded in vitro from isolated spinal nerve roots
Set-up: species or system rats
Details: for IC50: K+ concentration read from the dose-response curves, read-out: 50% reduction of the CAP
Description: Using the method as described in J. Physiol 275, (1978), pages 177-189, experiments were carried out in vitro on spinal nerve roots of the cauda equina dissected from killed rats. Compound nerve action potentials (CAPs) were recorded from the nerves which were placed in a bath incorporating stimulating and recording electrodes and analyzed with MacLab Scope. Kreb's solutions containing various potassium ion concentrations were applied for 5 minutes to an isolated central portion of the nerve between the two sets of electrodes. With all potassium salts tested, the amplitude and area of the CAPs were reduced in a dose-dependent manner by test solutions containing 8 mM K⁺ or more. "Mean INT" in the table is the mean integrated CAP, expressed as a percentage of the control response, i.e. the response obtained with Krebs' solution containing 4mM K⁺. There were no differences in the results for CAP peak amplitudes and integrated CAPs.
Wilcoxons' Sum of Ranks test was used to compare the % of control I-CAP values obtained after 5 min exposure to the different K⁺ salts at equivalent concentrations.

[1] = [K+] 8 mM, applied for 5 minutes, mean integrated CAP as percentage of control response (Krebs' solution containing 4mM K+)
[2] = [K+] 16 mM, applied for 5 minutes, mean integrated CAP as percentage of control response (Krebs' solution containing 4mM K+)
[3] = [K+] 24 mM, applied for 5 minutes, mean integrated CAP as percentage of control response (Krebs' solution containing 4mM K+)
[4] = [K+] 32 mM, applied for 5 minutes, mean integrated CAP as percentage of control response (Krebs' solution containing 4mM K+)
[5] = [K+] 64 mM, applied for 5 minutes, mean integrated CAP as percentage of control response (Krebs' solution containing 4mM K+)

Row | Molecule | IC50 | mean INT.(%) [1] | mean INT.(%) [2] | mean INT.(%) [3] | mean INT.(%) [4] | mean INT.(%) [5] | effect on CAP compared with potassium oxalate (16-64 mM K+, p < 0.05) | activity at 8000 µM (Rattus norvegicus, 5 min, [K+] 8 mM, applied for 5 minutes, mean integrated CAP as percentage of control response (Krebs' solution containing 4mM K+), read-out: mean INT.(%)) | activity at 16000 µM (Rattus norvegicus, 5 min, [K+] 16 mM, applied for 5 minutes, mean integrated CAP as percentage of control response (Krebs' solution containing 4mM K+), read-out: mean INT.(%)) | activity at 24000 µM (Rattus norvegicus, 5 min, [K+] 24 mM, applied for 5 minutes, mean integrated CAP as percentage of control response (Krebs' solution containing 4mM K+), read-out: mean INT.(%)) | activity at 32000 µM (Rattus norvegicus, 5 min, [K+] 32 mM, applied for 5 minutes, mean integrated CAP as percentage of control response (Krebs' solution containing 4mM K+), read-out: mean INT.(%)) | activity at 64000 µM (Rattus norvegicus, 5 min, [K+] 64 mM, applied for 5 minutes, mean integrated CAP as percentage of control response (Krebs' solution containing 4mM K+), read-out: mean INT.(%)) | IC50 (Rattus norvegicus)
1 | potassium oxalate [K₂Oxalate] | 14.3 mM | 84% | 42% | 11% | 3% | 1% |  |  |  |  |  |  | 
2 | O=C(O)C(O)C(O)C(=O)O (stereo not shown) [K₂Tartrate, dipotassium tartrate] |  |  |  |  |  |  | significantly greater | 83% | 15% | 2% | 1% | 1% | 11.6 mM
3 | O=[N+]([O-])[O-].[K+] [KNO₃, potassium nitrate] | 17.4 mM | 91% | 54% | 17% | 2% | 0% |  |  |  |  |  |  | 
4 | [Cl-].[K+] [KCl, potassium chloride] | 17.8 mM | 98% | 59% | 13% | 1% | 0% |  |  |  |  |  |  | 
